According to EP0552142B2, “T CELL RECEPTOR PEPTIDES AS THERAPEUTICS FOR AUTOIMMUNE AND MALIGNANT DISEASE” (priority 1989, dated 1991):
Ends that are not written are not given here.

Test system: EAE
Parameters: species or system New Zealand white rabbits
Conditions: rabbit, in vivo
Procedure: The emulsion was injected SC in multiple sites in the dorsal area of the neck and the tail. Rabbits were immunized either with the free peptide or with peptide conjugated to KLH. […] All rabbits were bled via the ear vein after they were placed in restraining cages and tranquilized with ace-promozine. To prevent hypovolemia, the amount of blood removed was replaced with sterile saline. Sera from individual rats or rabbits were prepared from clotted blood by centrifugation. All sera were decomplemented for 30 minutes at 56°C and frozen in small aliquots to which sodium azide was added.

Sequence: DMGHGLRLIHYSYDVNSTEKG [TCR Vβ8(39-59)]
- Clinical Signs of EAE: None
